What was measured:
[1] = test system: light sensitivity of dark adapted rats; test: ERG analysis of dark adaptation, dose ranging protocol; assay type: in vivo, rat; conditions: i.p.
Procedure: Dark adaptation is the recovery of visual sensitivity following exposure to light. Dark adaptation has multiple components including both fast (neuronal) processes and slow (photochemical) process. Regeneration of visual pigment is related to the slow photochemical process. Dark adaptation rates are measured for several reasons. Night blindness results from a failure to dark adapt (loss of visual light sensitivity). It is possible to find a safe dose for night vision by measuring drug effects on dark adapted visual light sensitivity.
An electroretinogram (ERG) is used measure dark adaptation under normal vs. drug conditions. ERG is the measurement of the electric field potential emitted by retinal neurons during their response to an experimentally defined light stimulus. More specifically, ERG measures retinal field potentials at the cornea after a flash of light (e.g., 50 ms). Field strengths are 10^2 to 10^3 microvolts, originating in retinal cells.
ERG is a non-invasive measurement which can be performed on either living subjects (human or animal) or a hemisected eye in solution that has been removed surgically from a living animal. […]
The ERG measurement is taken after a specific duration of post-bleach dark recovery (e.g., 30 min) determined previously by kinetic analysis (see FIGS. 6a and 6b). […]

[2] = NMR analysis of RAL reactions (Schiff base condensation and ring formation); assay type: physicochemical; conditions: Schiff base condensation with RAL, pure chloroform

Row | duration of the effect on vision ([1]; rat ERG) | Structure (SMILES) | effect on ERG light sensitivity of dark adapted rats ([1]; dose ranging, FIG. 7) | tau (minutes) condense [2] [min]
1 | decreases after 3 hours | CCOC(=O)c1cccc(N)c1 [Compound 6, tricaine methane sulfonate] | lowers light sensitivity of dark adapted rats in a dose dependent manner | –
2 | – | CC(C)(O)c1nc2ccc(Cl)cc2cc1N [Compound 9] | – | 320

— patent US9364471B2, “Compositions and methods of treating retinal disease” (ALDEYRA THERAPEUTICS, INC., priority 2005, dated 2016)
